# Measured values: US4804668A, “Thiazole derivatives and medical compositions thereof” (Zenyaku Kogyo Kabushiki Kaisha, priority 1985, dated 1989)
# Experiments:
# isolated left atrium = test: Effect on contractile force of isolated left atrium (electrically stimulated, Magnus's bath); parameters: species or system guinea pig (male Hartley, 7 weeks old); settings: Corresponding Concentration 1 × 10^-4 (mol); isolated guinea pig left atrium, Krebs-Henseleit solution, stimulated at 0.5 cps, 5 msec, 20% above threshold
# Description: (1) The contractile force of left atrium was tested according to the method described in Basic Lectures of Medicine Development, Volume V, Pharmacological Test Methods, Part 2, page 535 (1971). A 7-weeks-old male Hartley guinea pig (having a bodyweight of about 350 g) was killed by a blow on a head. The chest was opened and the heart was removed and placed in Krebs-Henseleit solution (prepared by adding distilled water to 6.92 g of sodium chloride, 0.35 g of calcium chloride, 0.29 g of magnesium sulfate, 0.16 g of mono-basic potassium phosphate, 2.1 g of sodium bicarbonate and 1.8 g of glucose so that the total amount was 1 l) which sufficiently bubbled with oxygen gas. Threads were tied to each tip of the left atrium. One thread was attached to a fixed pin in Magnus's bath and the other to a force-displacement transducer connected to an electric amplifier and recorder. The atrium was stimulated electrically at 0.5 cps, 5 msec and a voltage of 20% above threshold. The preparation is mounted in Krebs-Henseleit solution through which 95% oxygen gas and 5% carbon dioxide was blown. Then the samples were added.
# Further, the above-mentioned tests were carried out by using following apparatuses.
# Magnus's bath: supplied by Kabushiki Kaisha Natsume Seisakusho
# Recorder: Model WI-680G supplied by Nippon Koden Kabushiki Kaisha
# Force displacement transducer: supplied by Nippon Koden Kabushiki Kaisha
# Electrical amplifier: Model AP-600G supplied by Nippon Koden Kabushiki Kaisha
# Programmed electrosphygmonometer: supplied by Nippon Koden Kabushiki Kaisha
# [1] = Acute toxicity (Litchfield-Wilcoxon method), intraperitoneal injection; parameters: species or system mouse (6-weeks-old male ddY); settings: mouse, in vivo, ip, male ddY mice, 6 weeks old, 19-24 g
# Description: (2) The acute toxicity of the compound of the formula I was determined according to the Litchfield-Wilcoxon method, J. Pharm. Exp. Ther., 96, 99 (1949) using 6-weeks-old male ddY mice (having a bodyweight of 19-24 g) while administrating the sample compound in intraperitonial injection.
SMILES,Maximum Contractile Force (isolated left atrium),LD50 [1] [mg/kg]
Cc1nc(C(N)=O)sc1-c1ccncc1 [4-Methyl-5-(4-pyridinyl)-thiazole-2-carboxamide],"1,325 ± 132 mg",230
COC(=O)c1nc(C)c(-c2ccncc2)s1 [Methyl 4-methyl-5-(4-pyridinyl)-thiazole-2-carboxylate],446 ± 91 mg,–
"Cc1nc(C#N)sc1-c1ccncc1 [R1 = --CN, R2 = --CH3, R3 = 4-pyridinyl, 2-cyano-4-methyl-5-(4-pyridinyl)-thiazole]",558 ± 123 mg,–
"CNC(=O)c1nc(C)c(-c2ccncc2)s1 [R1 = --CONHCH3, R2 = --CH3, R3, N,4-Dimethyl-5-(4-pyridinyl)-thiazole-2-carboxamide]",510 ± 45 mg,–
